Reference: US6534325B1, “Immunoassay for the detection of amphetamines, methamphetamines and methylenedioxy designer amphetamines” (priority 2000, dated 2003)
Like-named read-outs stand apart in the source and are kept apart here.

Key:
[1] = system: amphetamine and methamphetamine monoclonal antibodies (mouse); assay: Roche Hitachi AMP/MDMA immunoassay (method of the invention, MDMA calibrator), cross-reactivity; conditions: cutoff 300 ng/ml, MDMA calibrator, HITACHI 917 analyzer
[2] = system: amphetamine and methamphetamine monoclonal antibodies (mouse); assay: Roche Hitachi AMP/MDMA immunoassay with MDA calibrator, cross-reactivity; conditions: cutoff 300 ng/ml, HITACHI 717 analyzer
[3] = system: amphetamine antibody and methamphetamine antibody; conditions: cutoff 500 ng/ml, currently marketed assay, cited from earlier work
[4] = system: amphetamine antibody and methamphetamine antibody; conditions: cutoff 500 ng/ml, currently marketed assay, cited from earlier work; remark: listed apart in the source
[5] = system: amphetamine antibody and methamphetamine antibody; conditions: cutoff 1000 ng/ml, currently marketed assay, cited from earlier work
[6] = system: amphetamine antibody and methamphetamine antibody; conditions: cutoff 1000 ng/ml, currently marketed assay, cited from earlier work; remark: listed apart in the source

| SMILES | Cross-reactivity, Roche Hitachi AMP/MDMA [1] [%] | Cross-reactivity, Roche Hitachi AMP/MDMA, MDA used as calibrator [2] [%] | Cross-reactivity, Roche Integra AMPSC [3] [%] | Cross-reactivity, Roche Hitachi AMP [4] [%] | Cross-reactivity, Abbott TDX AMP/methAMP [5] [%] | Cross-reactivity, CEDIA DAU AMP [6] [%] | also measured |
| --- | --- | --- | --- | --- | --- | --- | --- |
| CCC(N)Cc1ccc2c(c1)OCO2 (racemic) [BDB, (±)-(3,4-methylenedioxyphenyl)-2-butanamine] | 4.7 | – | – | – | – | – | – |
| CC(N)C(O)c1ccccc1 (stereo not drawn) [l-PPA, phenylpropanolamine] | 0.6 | 6.2 | 1.1 | 1.5 | – | – | – |
| CNC(C)Cc1ccc2c(c1)OCO2 (racemic) [MDMA, (±)-3,4 methylenedioxymethamphetamine] | 100.0 | 81.0 | 79 | 36 | 97 | 69 | – |
| CN[C@@H](C)Cc1ccccc1 [d-MAMP, methamphetamine] | 300.0 | 269.0 | 12 | 82.2 | 97.8 | 100 | – |
| CN[C@@H](C)[C@H](O)c1ccccc1 (racemic) [dl-ephedrine, ephedrine] | <0.3 | 0.34 | <0.1 | <0.1 | – | 0.4 | – |
| CCC(Cc1ccc2c(c1)OCO2)NC (racemic) [MBDB, (±)-N-methyl-1-(3,4-methylenedioxyphenyl)-2-butanamine] | 70.0 | – | – | – | – | – | – |
| CC(N)Cc1ccccc1 (stereo not drawn) [l-AMP, amphetamine] | – | 15.2 | – | – | – | – | Cross-reactivity, Abbott TDX AMP/methAMP ([5]; listed as 1-AMP): 56.9%; Cross-reactivity, Roche Hitachi AMP/MDMA ([1]; listed as 1-AMP): 3.8%; Cross-reactivity, Roche Integra AMPSC ([3]; listed as 1-AMP): 4.2%; Cross-reactivity, CEDIA DAU AMP ([6]; listed as 1-AMP): 3.0%; Cross-reactivity, Roche Hitachi AMP ([4]; listed as 1-AMP): 6% |
| CN[C@@H](C)Cc1ccccc1 [l-MAMP, methamphetamine] | – | 24.7 | 12 | – | – | – | Cross-reactivity, Abbott TDX AMP/methAMP ([5]; listed as 1-MAMP): 7.2%; Cross-reactivity, Roche Hitachi AMP/MDMA ([1]; listed as 1-MAMP): 18%; Cross-reactivity, CEDIA DAU AMP ([6]; listed as 1-MAMP): 12%; Cross-reactivity, Roche Hitachi AMP ([4]; listed as 1-MAMP): 0.8% |
| CNC(C)Cc1ccc(O)c(OC)c1 (stereo not drawn) [HMMA, 4-hydroxy-3-methoxymethamphetamine] | <0.3 | – | – | – | – | – | – |
| CC(N)Cc1ccccc1 (stereo not drawn) [d-AMP, amphetamine] | 97.0 | 319.0 | 100 | 100 | 100 | 101 | – |
| CC(N)Cc1ccc2c(c1)OCO2 (racemic) [MDA, (±)-3,4-methylenedioxyamphetamine] | 25.0 | 100.0 | 40 | 35.5 | 148 | 1.9 | – |
